Data on one substance can be found in patent US20070111952A1, “Glycosylated triketide delta lactones” (priority 2003, published 2007).

The test system of data set [1] is A. azollae vegetative cells. Description: Stability of the akinete-inducing activity (autoclaving, long storage). Details: species or system Anabaena azollae. Here is the method: Extract of Nephrotoma cornicina (Linnaeus, 1758) (Tipulidae, Diptera) contains a glycosylated triketide lactone, here named cornicinine. The compound according to the invention is present in the head, thorax, abdomen, legs and wings of the insect, from both sexes.
An Azolla shoot apex +/−3 mm long was excised and placed in a 2 ml Eppendorf tube filled with modified, N-free Hoagland solution to which was added the material to be tested. The culture was performed at 26° C. under constant light intensity of 110 μM. m^−2.sec^−1 and with daily adjustment of the liquid level with distilled water to compensate evapotranspiration. Activity was indicated by progressive chlorosis of Azolla, which appears after 5 days. Akinete differentiation can alternatively be followed by observation of leaf squashes under a light microscope, with first symptoms appearing after 48 hours of treatment.

Data set [2] concerns A. azollae vegetative cells. Put plainly: Azolla shoot apex bioassay: akinete differentiation of A. azollae / chlorosis of Azolla. It is filed as cell-based, Anabaena azollae. How it is done: Approximately 10 000 dried N. cornicina (36 g) were ground, suspended in 750 ml H2O, treated 60′ in a 100° C. water bath and centrifuged (14 000×g, 60′). The residue was re-suspended in 300 ml H2O, shacked 15′ and centrifuged (14 000×g, 60′). The two supernatants were grouped, filtered on Macherey-Nagel MN 615 paper and lyophilized. The dry residue (7 g) was suspended in 8 ml H2O, vortexed and centrifuged (7 800×g, 30′). Six ml of supernatant were filtered on acrodiscs 0.22 μm in four 1.5 ml batches, each filtrate being chromatographed on a 500 ml, 2.5 cm diameter Sephadex G 10 column (eluent: water; 3′/fraction, around 6 ml/fraction) The residue was suspended in 2 ml H2O, vortexed and centrifuged (7 800×g, 30′). Two ml of supernatant were filtered and chromatographed as above. This last procedure was repeated twice. Absorbance of each fraction was measured at 254 nm and bioassays were performed on 50 μl of each fraction from the seven chromatograms.
Azolla is a small aquatic fern, which multiplies, most often vegetatively, at the surface of still water bodies, where it can form dense floating carpets. Anabaena azollae is the only known diazotrophic symbiont associated to a pteridophyte, Azolla and the only one linked to a plant throughout its life cycle. […]

As for cornicinine, the stability entry in data set [1] is “stable”. Further, the “concentration able to induce the differentiation of all the vegetative cells of A. azollae into akinetes” value in data set [2] (all vegetative cells into akinetes) is reported as “nanomolar concentrations”. For the same substance, the “activity on Azolla species” value in data set [2] (the seven generally recognised Azolla species) is given as “active”.
